Assay results reported in patent US6613718B2, “Aryl ether derivatives and processes for their preparation and herbicidal and desiccant compositions containing them” (Ishihara Sangyo Kaisha, Ltd., priority 2001, dated 2003).

Legend:
[1] = test system: barnyardgrass (Echinochloa crus-galli, ECHCG); experiment: Pre-emerge greenhouse herbicide activity screening, phytotoxicity rating; type: in vivo; settings: 14 days after application
Summary of the method: (§1)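 Pre-emerge: seeds sown 1 day before spray; acetone solutions, 15–1000 g ai/ha, track sprayer; soil watered after application, then bottom-watered. Post-emerge: plants at 2-3 leaf stage (sown 8-21 days prior), 0.25% v/v non-ionic surfactant added, bottom-watered only. Rated 0-100 at 14 DAA.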

[2] = test system: common ragweed (Ambrosia artemisiifolia L., AMBEL); experiment: as above; type: in vivo; settings: 14 days after application
Summary of the method: as §1

[3] = test system: green foxtail (Setaria viridis, SETVI); experiment: as above; type: in vivo; settings: 14 days after application
Summary of the method: as §1

[4] = test system: ivyleaf morningglory (Ipomoea hederacea, IPOHE); experiment: as above; type: in vivo; settings: 14 days after application
Summary of the method: as §1

[5] = test system: johnsongrass (Sorghum halepense, SORHA); experiment: as above; type: in vivo; settings: 14 days after application
Summary of the method: as §1

[6] = test system: lambsquarters (Chenopodium album, CHEAL); experiment: as above; type: in vivo; settings: 14 days after application
Summary of the method: as §1

[7] = test system: large crabgrass (Digitaria sanguinalis, DIGSA); experiment: as above; type: in vivo; settings: 14 days after application
Summary of the method: as §1

[8] = test system: redroot pigweed (Amaranthus retroflexus, AMARE); experiment: as above; type: in vivo; settings: 14 days after application
Summary of the method: as §1

[9] = test system: sicklepod (Cassia obtusifolia, CASOB); experiment: as above; type: in vivo; settings: 14 days after application
Summary of the method: as §1

[10] = test system: velvetleaf (Abutilon theophrasti, ABUTH); experiment: as above; type: in vivo; settings: 14 days after application
Summary of the method: as §1

[11] = test system: field corn (Zea mays L., var. Dekalb 535, CORN); experiment: Pre-emerge greenhouse screening, crop safety (phytotoxicity rating); type: in vivo; settings: 14 days after application
Summary of the method: as §1

[12] = test system: soybean (Glycine max L., var. Pella 86, SOY); experiment: as above; type: in vivo; settings: 14 days after application
Summary of the method: as §1

[13] = test system: upland rice (Oryza sp., var.Tebonnet, RICE); experiment: as above; type: in vivo; settings: 14 days after application
Summary of the method: as §1

[14] = test system: barnyardgrass (Echinochloa crus-galli, ECHCG); experiment: Post-emerge greenhouse herbicide activity screening, phytotoxicity rating; type: in vivo; settings: 14 days after application
Summary of the method: as §1

[15] = test system: common ragweed (Ambrosia artemisiifolia L., AMBEL); experiment: as above; type: in vivo
Summary of the method: as §1

[16] = test system: green foxtail (Setaria viridis, SETVI); experiment: as above; type: in vivo
Summary of the method: as §1

[17] = test system: ivyleaf morningglory (Ipomoea hederacea, IPOHE); experiment: as above; type: in vivo; settings: 14 days after application
Summary of the method: as §1

[18] = test system: johnsongrass (Sorghum halepense, SORHA); experiment: as above; type: in vivo; settings: 14 days after application
Summary of the method: as §1

[19] = test system: lambsquarters (Chenopodium album, CHEAL); experiment: as above; type: in vivo
Summary of the method: as §1

[20] = test system: large crabgrass (Digitaria sanguinalis, DIGSA); experiment: as above; type: in vivo; settings: 14 days after application
Summary of the method: as §1

[21] = test system: redroot pigweed (Amaranthus retroflexus, AMARE); experiment: as above; type: in vivo
Summary of the method: as §1

[22] = test system: sicklepod (Cassia obtusifolia, CASOB); experiment: as above; type: in vivo
Summary of the method: as §1

[23] = test system: velvetleaf (Abutilon theophrasti, ABUTH); experiment: as above; type: in vivo; settings: 14 days after application
Summary of the method: as §1

[24] = Post-emerge greenhouse screening, crop safety / corn selectivity (phytotoxicity rating); type: in vivo, Zea mays L.; settings: Zea mays (field corn), in vivo
Summary of the method: as §1

[25] = test system: field corn (Zea mays L., var. Dekalb 535, CORN); experiment: as above; type: in vivo; settings: 14 days after application
Summary of the method: as §1

[26] = test system: soybean (Glycine max L., var. Pella 86, SOY); experiment: Post-emerge greenhouse screening, crop safety (phytotoxicity rating); type: in vivo; settings: 14 days after application
Summary of the method: as §1

[27] = test system: upland rice (Oryza sp., var.Tebonnet, RICE); experiment: as above; type: in vivo; settings: 14 days after application
Summary of the method: as §1

[28] = 125 g ai/ha, 14 days after application
[29] = 250 g ai/ha, 14 days after application

Structure (SMILES): Cn1c(C(F)(F)F)cc(=O)n(-c2cc(Oc3ncccn3)c(Cl)cc2F)c1=S [Compound 1-1, 3-[4-Chloro-2-fluoro-5-(2-pyrimidinyloxy)phenyl]-2,3-dihydro-1-methyl-2-thioxo-6-(trifluoromethyl)-4(1H)-pyrimidinone]
- ECHCG phytotoxicity rating (0-100 scale) ([1]; 125 g ai/ha): 100
- ECHCG phytotoxicity rating (0-100 scale) ([1]; 250 g ai/ha): 100
- AMBEL phytotoxicity rating (0-100 scale) ([2]; 125 g ai/ha): 100
- AMBEL phytotoxicity rating (0-100 scale) ([2]; 250 g ai/ha): 100
- SETVI phytotoxicity rating (0-100 scale) ([3]; 125 g ai/ha): 100
- SETVI phytotoxicity rating (0-100 scale) ([3]; 250 g ai/ha): 100
- IPOHE phytotoxicity rating (0-100 scale) ([4]; 125 g ai/ha): 100
- IPOHE phytotoxicity rating (0-100 scale) ([4]; 250 g ai/ha): 100
- SORHA phytotoxicity rating (0-100 scale) ([5]; 125 g ai/ha): 100
- SORHA phytotoxicity rating (0-100 scale) ([5]; 250 g ai/ha): 100
- CHEAL phytotoxicity rating (0-100 scale) ([6]; 125 g ai/ha): 100
- CHEAL phytotoxicity rating (0-100 scale) ([6]; 250 g ai/ha): 100
- DIGSA phytotoxicity rating (0-100 scale) ([7]; 125 g ai/ha): 100
- DIGSA phytotoxicity rating (0-100 scale) ([7]; 250 g ai/ha): 100
- AMARE phytotoxicity rating (0-100 scale) ([8]; 125 g ai/ha): 100
- AMARE phytotoxicity rating (0-100 scale) ([8]; 250 g ai/ha): 100
- CASOB phytotoxicity rating (0-100 scale) ([9]; 125 g ai/ha): 100
- CASOB phytotoxicity rating (0-100 scale) ([9]; 250 g ai/ha): 100
- ABUTH phytotoxicity rating (0-100 scale) ([10]; 125 g ai/ha): 100
- ABUTH phytotoxicity rating (0-100 scale) ([10]; 250 g ai/ha): 100
- CORN crop damage, phytotoxicity rating (0-100 scale) ([11]; 125 g ai/ha): 100
- CORN crop damage, phytotoxicity rating (0-100 scale) ([11]; 250 g ai/ha): 100
- SOY crop damage, phytotoxicity rating (0-100 scale) ([12]; 125 g ai/ha): 100
- SOY crop damage, phytotoxicity rating (0-100 scale) ([12]; 250 g ai/ha): 80
- RICE crop damage, phytotoxicity rating (0-100 scale) ([13]; 125 g ai/ha): 100
- RICE crop damage, phytotoxicity rating (0-100 scale) ([13]; 250 g ai/ha): 100
- ECHCG phytotoxicity rating (0-100 scale) ([14]; 125 g ai/ha): 100
- ECHCG phytotoxicity rating (0-100 scale) ([14]; 250 g ai/ha): 100
- AMBEL phytotoxicity rating (0-100 scale) ([15]; 31.3 g ai/ha): 75
- AMBEL phytotoxicity rating (0-100 scale) ([15]; 62.5 g ai/ha): 98
- AMBEL phytotoxicity rating (0-100 scale) [15, 28]: 99
- AMBEL phytotoxicity rating (0-100 scale) [15, 29]: 100
- SETVI phytotoxicity rating (0-100 scale) ([16]; 31.3 g ai/ha): 85
- SETVI phytotoxicity rating (0-100 scale) ([16]; 62.5 g ai/ha): 99
- SETVI phytotoxicity rating (0-100 scale) [16, 28]: 100
- SETVI phytotoxicity rating (0-100 scale) [16, 29]: 100
- IPOHE phytotoxicity rating (0-100 scale) ([17]; 125 g ai/ha): 100
- IPOHE phytotoxicity rating (0-100 scale) ([17]; 250 g ai/ha): 100
- SORHA phytotoxicity rating (0-100 scale) ([18]; 125 g ai/ha): 95
- SORHA phytotoxicity rating (0-100 scale) ([18]; 250 g ai/ha): 98
- CHEAL phytotoxicity rating (0-100 scale) ([19]; 31.3 g ai/ha): 100
- CHEAL phytotoxicity rating (0-100 scale) ([19]; 62.5 g ai/ha): 100
- CHEAL phytotoxicity rating (0-100 scale) [19, 28]: 100
- CHEAL phytotoxicity rating (0-100 scale) [19, 29]: 100
- DIGSA phytotoxicity rating (0-100 scale) ([20]; 125 g ai/ha): 95
- DIGSA phytotoxicity rating (0-100 scale) ([20]; 250 g ai/ha): 90
- AMARE phytotoxicity rating (0-100 scale) ([21]; 31.3 g ai/ha): 100
- AMARE phytotoxicity rating (0-100 scale) ([21]; 62.5 g ai/ha): 100
- AMARE phytotoxicity rating (0-100 scale) [21, 28]: 100
- AMARE phytotoxicity rating (0-100 scale) [21, 29]: 100
- CASOB phytotoxicity rating (0-100 scale) ([22]; 31.3 g ai/ha): 95
- CASOB phytotoxicity rating (0-100 scale) ([22]; 62.5 g ai/ha): 99
- CASOB phytotoxicity rating (0-100 scale) [22, 28]: 99
- CASOB phytotoxicity rating (0-100 scale) [22, 29]: 99
- ABUTH phytotoxicity rating (0-100 scale) ([23]; 125 g ai/ha): 100
- ABUTH phytotoxicity rating (0-100 scale) ([23]; 250 g ai/ha): 100
- corn phytotoxicity rating (0-100 scale) at 14 days ([24]; 31.3 g ai/ha): 8
- corn phytotoxicity rating (0-100 scale) at 14 days ([24]; 62.5 g ai/ha): 8
- CORN crop damage, phytotoxicity rating (0-100 scale) ([25]; 125 g ai/ha): 10
- CORN crop damage, phytotoxicity rating (0-100 scale) ([25]; 250 g ai/ha): 15
- SOY crop damage, phytotoxicity rating (0-100 scale) ([26]; 125 g ai/ha): 100
- SOY crop damage, phytotoxicity rating (0-100 scale) ([26]; 250 g ai/ha): 100
- RICE crop damage, phytotoxicity rating (0-100 scale) ([27]; 125 g ai/ha): 100
- RICE crop damage, phytotoxicity rating (0-100 scale) ([27]; 250 g ai/ha): 100
